Like-named read-outs stand apart in the source and are kept apart here.
Experiments:
Format in all cases: cell-based, Pseudomonas aeruginosa
[1] = test system: P. aeruginosa mutants EPIR1S, EPIR9S, EPIR20L, EPIR43; assay: MIC of antimicrobials in TXA09155-resistant mutants; conditions: Pseudomonas aeruginosa
Method: All resistant colonies were verified by determining the MIC to TXA09155. […] This two-component system regulates the expression of more than 100 genes in P. aeruginosa, including genes that code for efflux components (mexX), and plays a role in the resistance to cationic antimicrobial peptides and aminoglycoside antibiotics.
(§1) MIC assays were performed as described previously.

[2] = test system: 34 MDR P. aeruginosa clinical isolates (CDC & FDA AR Isolate Bank); assay: microbe, parasite or virus in culture; conditions: for MIC: Pseudomonas aeruginosa, alone or + labelled EPI […] (TXA09155 head: 50 µg/mL)
Source text: P. aeruginosa ATCC 27853 was obtained from the American Type Culture Collection (ATCC; Manassas, VA, USA). P. aeruginosa multidrug-resistant isolates were obtained from the CDC and FDA Antibiotic Resistance Isolate Bank (Atlanta, GA, USA). P. aeruginosa DA7232 (gyrA-T83I, parC-S80L) was a kind gift from Prof. Dan I. Andersson, Uppsala University, Uppsala, Sweden, and has been characterized elsewhere. P. aeruginosa strains K767 (WT), K1455 (mexAB-oprM overexpressed), K2415 (mexXY-oprM overexpressed), and K3698 (oprM∆) were obtained from Prof. Keith Poole, Queen’s University, Kingston, Ontario, Canada and have been characterized elsewhere. Bacterial cells were grown in cation-adjusted Mueller Hinton (CAMH) media, brain heart infusion broth (BHI), or tryptic soy agar (TSA) plates were all obtained from Becton, Dickinson, and Company (BD; Franklin Lakes, NJ, USA). […] Azithromycin was purchased from Tokyo Chemical Industry (Portland, OR, USA). […] Ethidium bromide (EtBr) and glucose were purchased from VWR (Radnor, PA, USA). MC-04,124 and TXA01182 were synthesized at TAXIS Pharmaceuticals. Carbonyl cyanide 3-chlorophenylhydrazone (CCCP) was purchased from Enzo Life Sciences (Farmingdale, NY, USA). DiOC2 (3) and propidium iodide were obtained from Thermo Fisher Scientific (Waltham, MA, USA).
as §1

[3] = test system: 209 P. aeruginosa clinical isolates from three US hospitals; assay: Susceptibility study, Micromyx panel; conditions: n: 209
Source text: First, 209 clinical isolates of P. aeruginosa were collected, unbiased of susceptibility, from three US hospitals by Micromyx (now part of Microbiologics; Kalamazoo, MI, USA). IHMA (Monthey, Switzerland) collected 300 P. aeruginosa clinical isolates, also unbiased of susceptibility, from the following 63 countries: Argentina, Australia, Belgium, Brazil, Canada, Chile, Colombia, Costa Rica, Croatia, Czech Republic, Denmark, Dominican Republic, Ecuador, France, Georgia, Germany, Greece, Guatemala, Hong Kong, Hungary, India, Ireland, Israel, Italy, Japan, Jordan, Kazakhstan, Kenya, South Korea, Kuwait, Latvia, Lebanon, Lithuania, Malaysia, Mexico, Morocco, Netherlands, New Zealand, Nigeria, Panama, Philippines, Poland, Portugal, Puerto Rico, Qatar, Romania, Russia, Saudi Arabia, Serbia, Slovenia, South Africa, Spain, Sweden, Switzerland, Taiwan, Thailand, Tunisia, Turkey, Ukraine, United Kingdom, United States, Venezuela, and Vietnam. Isolates came from the following types of infection: genitourinary (urine), gastrointestinal (stomach), gastrointestinal (pancreas), […] (wound), respiratory (sputum), […] (blood), respiratory (bronchoalveolar lavage), […] (burn), respiratory (endotracheal aspirate), bodily fluids (abscess/pus), […] (impetiginous lesions), gastrointestinal (abscess) and respiratory (bronchial brushing). CF patients were not excluded.
as §1

[4] = n: 34, in combination EPI fixed […]
[5] = in combination TXA09155 fixed […]

C[C@H]1COc2c(N3CCN(C)CC3)c(F)cc3c(=O)c(C(=O)O)cn1c23 [Levofloxacin] gave an MIC ([1]; strain EPIR1S (phoQ-L175R)) of 1 µg/mL, an MIC ([1]; strain EPIR9S (phoQ-L175R)) of 1 µg/mL and an MIC ([1]; strain EPIR20L (phoQ-H248D)) of 1 µg/mL. The MIC ([2]; read-out: Levofloxacin MIC, strain AR-0229) was 64 µg/mL, the MIC ([2]; read-out: Levofloxacin MIC, strain AR-0230) was 64 µg/mL and the MIC ([2]; read-out: Levofloxacin MIC, strain AR-0231) was 64 µg/mL. The MIC ([2]; read-out: Levofloxacin MIC, strain AR-0232) was 8 µg/mL, the MIC ([2]; read-out: Levofloxacin MIC, strain AR-0233) was 4 µg/mL and the MIC ([2]; read-out: Levofloxacin MIC, strain AR-0234) was 8 µg/mL. For the same molecule, the MIC ([2]; read-out: Levofloxacin MIC, strain AR-0236) was 32 µg/mL, the MIC ([2]; read-out: Levofloxacin MIC, strain AR-0239) was 64 µg/mL and the MIC ([2]; read-out: Levofloxacin MIC, strain AR-0240) was 128 µg/mL. The MIC ([2]; read-out: Levofloxacin MIC, strain AR-0241) was 64 µg/mL, the MIC ([2]; read-out: Levofloxacin MIC, strain AR-0242) was 16 µg/mL and the MIC ([2]; read-out: Levofloxacin MIC, strain AR-0244) was 128 µg/mL. It also gave an MIC ([2]; read-out: Levofloxacin MIC, strain AR-0245) of 128 µg/mL, an MIC ([2]; read-out: Levofloxacin MIC, strain AR-0246) of 64 µg/mL and an MIC ([2]; read-out: Levofloxacin MIC, strain AR-0247) of 2 µg/mL. It also gave an MIC ([2]; read-out: Levofloxacin MIC, strain AR-0248) of 16 µg/mL, an MIC ([2]; read-out: Levofloxacin MIC, strain AR-0249) of 64 µg/mL and an MIC ([2]; read-out: Levofloxacin MIC, strain AR-0250) of 64 µg/mL. For the same molecule, the MIC ([2]; read-out: Levofloxacin MIC, strain AR-0252) was 32 µg/mL, the MIC ([2]; read-out: Levofloxacin MIC, strain AR-0253) was 2 µg/mL and the MIC ([2]; read-out: Levofloxacin MIC, strain AR-0256) was 0.5 µg/mL. It also gave an MIC ([2]; read-out: Levofloxacin MIC, strain AR-0258) of 0.5 µg/mL, an MIC ([2]; read-out: Levofloxacin MIC, strain AR-0259) of 0.5 µg/mL and an MIC ([2]; read-out: Levofloxacin MIC, strain AR-0260) of 64 µg/mL. For the same molecule, the MIC ([2]; read-out: Levofloxacin MIC, strain AR-0261) was 8 µg/mL, the MIC ([2]; read-out: Levofloxacin MIC, strain AR-0262) was 4 µg/mL and the MIC ([2]; read-out: Levofloxacin MIC, strain AR-0264) was 32 µg/mL. It also gave an MIC ([2]; read-out: Levofloxacin MIC, strain AR-0265) of 64 µg/mL, an MIC ([2]; read-out: Levofloxacin MIC, strain AR-0266) of 32 µg/mL and an MIC ([2]; read-out: Levofloxacin MIC, strain AR-0267) of 32 µg/mL. The MIC ([2]; read-out: Levofloxacin MIC, strain AR-0269) was 32 µg/mL, the MIC ([2]; read-out: Levofloxacin MIC, strain AR-0270) was 32 µg/mL and the MIC ([2]; read-out: Levofloxacin MIC, strain AR-0271) was 32 µg/mL. For the same molecule, the MIC ([2]; read-out: Levofloxacin MIC, strain AR-0272) was 16 µg/mL, the “Cumulative Susceptibility % Strains at 0.5” value ([2]; concentration 0.5 µg/ml, n: 34) was 9% and the “Cumulative Susceptibility % Strains at 1” value ([2]; concentration 1 µg/ml, n: 34) was 9%. The “Cumulative Susceptibility % Strains at 2” value ([2]; concentration 2 µg/ml, n: 34) was 15%, the “Cumulative Susceptibility % Strains at 4” value ([2]; concentration 4 µg/ml, n: 34) was 21% and the “Cumulative Susceptibility % Strains at 8” value ([2]; concentration 8 µg/ml, n: 34) was 29%. For the same molecule, the “Cumulative Susceptibility % Strains at 16” value ([2]; concentration 16 µg/ml, n: 34) was 38%, the “Cumulative Susceptibility % Strains at 32” value ([2]; concentration 32 µg/ml, n: 34) was 62% and the “Cumulative Susceptibility % Strains at 0.06” value ([2]; concentration column 0.06 µg/ml, n: 34) was 0%. The “Cumulative Susceptibility % Strains at 64” value ([2]; concentration column 64 µg/ml, n: 34) was 91%, the “Cumulative Susceptibility % Strains at 128” value ([2]; concentration column 128 µg/ml, n: 34) was 100% and the “Cumulative Susceptibility % Strains at ≤0.03” value ([2]; concentration column ≤0.03 µg/ml, n: 34) was 0%. The MIC50 [2, 4] was 32 µg/mL, the MIC90 [2, 4] was 64 µg/mL and the “MIC Range” value [2, 4] was 0.5 to 128 µg/mL. The “MIC Range” value ([2]; n: 34, in combination EPI fixed […], listed as LVX) was 0.5 to 128 µg/mL, the “% R (percent resistant per breakpoints)” value ([3]; LVX ≤1S 2I ≥4R) was 32% and the “Cumulative Susceptibility % Strains at 0.5” value ([3]; concentration 0.5 µg/ml) was 47%. The “Cumulative Susceptibility % Strains at 1” value ([3]; concentration 1 µg/ml) was 58%, the “Cumulative Susceptibility % Strains at 2” value ([3]; concentration 2 µg/ml) was 68% and the “Cumulative Susceptibility % Strains at 4” value ([3]; concentration 4 µg/ml) was 78%. The “Cumulative Susceptibility % Strains at 8” value ([3]; concentration 8 µg/ml) was 86%, the “Cumulative Susceptibility % Strains at 16” value ([3]; concentration 16 µg/ml) was 93% and the “Cumulative Susceptibility % Strains at 32” value ([3]; concentration 32 µg/ml) was 98%. For the same molecule, the “Cumulative Susceptibility % Strains at >32” value ([3]; concentration >32 µg/ml) was 100%, the “Cumulative Susceptibility % Strains at 0.12” value ([3]; concentration column 0.12 µg/ml) was 2% and the MIC50 [3, 5] was 1 µg/mL. The MIC90 [3, 5] was 16 µg/mL.
